From BindingDB's records for patent US11718613 (University of Michigan, 2023) come the findings set out here.

Bounds are passed on as bounds.

By IC50 is commonly meant the concentration that gives 50% inhibition.

In the experiment the target is Induced myeloid leukemia cell differentiation protein Mcl-1 (Homo sapiens, UniProt Q07820). Description: Bcl-2 and Bcl-xL Inhibition Assay.
Chain of Induced myeloid leukemia cell differentiation protein Mcl-1 (Q07820 whole entry): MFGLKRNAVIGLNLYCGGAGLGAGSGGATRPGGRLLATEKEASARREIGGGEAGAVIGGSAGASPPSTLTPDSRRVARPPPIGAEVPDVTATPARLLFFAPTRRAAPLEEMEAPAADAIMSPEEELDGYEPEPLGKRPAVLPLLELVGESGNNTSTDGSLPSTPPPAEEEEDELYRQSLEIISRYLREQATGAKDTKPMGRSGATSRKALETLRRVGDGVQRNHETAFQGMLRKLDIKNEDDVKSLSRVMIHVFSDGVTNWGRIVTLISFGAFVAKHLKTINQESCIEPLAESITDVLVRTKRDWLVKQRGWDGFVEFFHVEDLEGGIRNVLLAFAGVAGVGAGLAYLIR

Procedure: Fluorescence polarization values were measured using the Infinite M-1000 plate reader (Tecan U.S., Research Triangle Park, N.C.) in Microfluor 1 96-well, black, round-bottom plates (Thermo Scientific). […] Plates were mixed and incubated at room temperature for 1 hour with gentle shaking to assure equilibrium. […] Equilibrium dissociation constants (Kd) were then calculated by fitting the sigmoidal dose-dependent FP increases as a function of protein concentrations using Graphpad Prism 5.0 software (Graphpad Software, San Diego, Calif.).

In turn, `O=C(NS(=O)(=O)c1ccc(NC[C@@H]2COCCO2)c([N+](=O)[O-])c1)c1ccc(N2CCN(CC3=C(c4ccc(Cl)cc4)CC4(CCC4)CC3)CC2)cc1Oc1cnc2[nH]ccc2c1` [US11718613, Compound 13] came in with an IC50 above 5 µM.
